Here are results for 1 molecule from patent US12383527B2, “Methods for treating triple negative breast cancer using salvianolic acid B” (HOWARD UNIVERSITY, priority 2018, dated 2025).

Common to all, as to type: cell-based, human
Details in all cases: Sal-B 50 μM and 100 μM, 24 hours

The test system of assay [1] is cyclin B1. Briefly: Western blot of cyclin B1 expression in MDA and MCF-7 cells. As to the method:
The expression of two cell cycle-related proteins—cyclin A and cyclin B1—was checked by Western blot. The expression of cyclin A and cyclin B1 was normalized by the expression of the internal control β-actin (lower panel). The cells were treated with 50 μM and 100 μM Sal-B, respectively, for 24 hours. Doxorubicin (0.1 μM and 1 μM) was used as a control. […] The results may be explained by that the cell cycle progression is controlled by a large set of molecules, although cyclin B1 is a key component in the control of cell cycle progression from G2 to M phase.
The immunohistochemical results were consistent with those from Western blotting (FIG. 7, panel A). Western blot analysis was used to determine the expression of apoptosis-related proteins Bcl-XL, survivin, caspase-3 and caspase-8 (FIG. 7, panel A). β-actin was used as an internal control for Western blotting. The MCD-7 and MDA cells were treated with Sal-B (50 μM and 100 μM) and doxorubicin (0.1 μM and 1 μM), respectively, for 24 hours. Proteins were extracted from the cells with RIPA lysis buffer (Santa Cruz Biotechnology, Santa Cruz, CA) and the protein concentrations were quantified with Bio-Rad protein quantification kit. Whole-cell proteins were separated on 8% SDS-polyacrylamide gel, transferred to the polyvinylidene difluoride membrane (Bio-Rad), and then probed with the indicated primary antibodies overnight at 4° C. Washed blots were then incubated with horseradish peroxidase-conjugated anti-rabbit, anti-mouse, or anti-goat antibody (Santa Cruz Biotechnology), respectively, for one hour at room temperature. Blots were developed and visualized with ECL detection system (Bio-Rad).
A general note: In western blotting, separated proteins are transferred to a membrane and probed.

For assay [2], the system named is MCF-7 cells. The experiment in a line: Cell cycle profile analysis by flow cytometry. As to the method: (§1) Cell cycle profile analysis using flow cytometry and Western blot analysis. To understand the effects of Sal-B on the cell cycle of cancer cells, the cell cycle profile was analyzed using flow cytometry. The cells from both cell lines were treated with Sal-B (50 and 100 µM) or doxorubicin (0.1 and 1 μM) for 24 hours and then fixed in chilled 80% ethanol. The fixed cells were incubated in a solution containing 100 μg/mL RNase at 37° C. water bath for 45 minutes. Propidium iodide (final concentration of 50 μg/ml) was then added to the cells and incubated in a 37° C. water bath for another 15 minutes. The analysis was carried out with a FACStar flow cytometer (Becton Dickinson, San Jose, CA). Ten thousand cells per sample were analyzed, cach sample was done in triplicate and the experiment was repeated three times.

For assay [3], the system named is MDA-MB-231 cells. The experiment in a line: Cell cycle profile analysis by flow cytometry. As to the method:
as §1
For orientation: In flow cytometry, cells or beads pass a laser one at a time.

Structures are written as SMILES.

Regarding `O=C(/C=C/c1ccc(O)c2c1[C@H](C(=O)O[C@H](Cc1ccc(O)c(O)c1)C(=O)O)[C@@H](c1ccc(O)c(O)c1)O2)O[C@H](Cc1ccc(O)c(O)c1)C(=O)O` [Sal-B, Salvianolic acid B], the “cyclin B1 expression (normalized to β-actin)” value in assay [1] (MCF-7 cells) and in assay [1] (MDA cells) was “down-regulation” throughout. Also, the “changes in the cell cycle phases” value in assay [2] and in assay [3] was “no significant changes” throughout.
